Source: patent publication US20240059655A1, “HETEROCYCLIC G-PROTEIN-COUPLED RECEPTOR 52 (GPR52) AGONISTS” (Board of Regents, The University of Texas System, priority 2020, published 2024)
Where two headings read alike, the source gives them in different places.

What was measured:
human GPR52 [1] = target: T1, human GPR52 (Homo sapiens (Human), UniProt Q9Y2T5); assay: Glosensor cAMP assay in HEK293 cells transiently expressing human GPR52; type: cell-based
Target sequence in this assay (Q9Y2T5 whole entry): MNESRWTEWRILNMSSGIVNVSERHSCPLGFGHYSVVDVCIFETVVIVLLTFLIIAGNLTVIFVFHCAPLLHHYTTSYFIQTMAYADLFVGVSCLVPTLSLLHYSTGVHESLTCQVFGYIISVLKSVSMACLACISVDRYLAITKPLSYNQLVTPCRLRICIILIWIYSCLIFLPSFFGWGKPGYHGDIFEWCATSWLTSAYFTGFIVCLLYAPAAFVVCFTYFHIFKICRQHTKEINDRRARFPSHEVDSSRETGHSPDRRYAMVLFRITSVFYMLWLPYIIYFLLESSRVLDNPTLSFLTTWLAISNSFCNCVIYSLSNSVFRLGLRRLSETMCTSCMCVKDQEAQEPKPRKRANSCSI

GPR52 = conditions: relative to compound 4a
Method: Bias factor calculations. Mean efficacy (Emax) and potency (EC50) were taken from at least three independent experiments for all compounds tested in both the cAMP and β-arrestin recruitment assays. Formulas for bias factor calculations were adapted from Kenakin^37. […] A ΔΔ log(Emax/EC50) value for each compound was calculated by subtraction of Δ log(Emax/EC50)β-arrestin from Δ log(Emax/EC50)cAmP. The inverse log of this ΔΔ log(Emax/EC50) value is the G protein bias factor. Conversely, the β-arrestin bias factor is calculated from the inverse log of ΔΔ log(Emax/EC50) when Δ log(Emax/EC50)cAmP is subtracted from Δ log(Emax/EC50)β-arrestin.

human GPR52 [2] = target: T1, human GPR52; assay: TANGO β-arrestin recruitment assay in HTLA cells expressing GPR52 TANGO construct; conditions: read-out: β-Arrestin Recruitment Emax (%)
Target sequence in this assay (Q9Y2T5 whole entry, looked up, change not shown): as the sequence (Q9Y2T5 whole entry) above

[3] = HEK293, cAMP assay, relative to compound 4 as 100% and 0.5% DMSO as 0%, mean ± SEM, "—" not detected, read-out: Emax (%)

`COC(=O)C(NC(=O)c1cccc(Nc2cc(Cc3cccc(C(F)(F)F)c3)ccn2)c1)[C@@H](C)O` (stereo in doubt) [PW0673, Methyl (3-((4-(3-(trifluoromethyl)benzyl)pyridin-2-yl)amino)benzoyl)-D-allothreoninate] was tested, and the Emax (human GPR52 [1]; [3]) was 164 ± 12%.

In the case of `O=C(N[C@@H](CO)C(O)c1ccccc1)c1cccc(Nc2cc(Cc3cccc(C(F)(F)F)c3)ccn2)c1` (stereo in doubt) [PW0675, N-((1S)-1,3-Dihydroxy-1-phenylpropan-2-yl)-3-((4-(3-(trifluoromethyl)benzyl)pyridin-2-yl)amino)benzamide], the Emax (human GPR52 [1]; [3]) is reported as 188 ± 11%.

`O=C(NCCO)c1cccc2c1CCN2c1ccnc(Cc2cc(F)cc(C(F)(F)F)c2)n1` [Compound 12a, 1-(2-(3-Fuoro-5-(trifluoromethyl)benzyl)pyrimidin-4-yl)-N-(2-hydroxyethyl)indoline-4-carboxamide] showed an Emax (human GPR52 [1]; [3]) of 144%.

`O=C(NCCO)c1cccc2c1CCN2c1nccc(Cc2cc(F)cc(C(F)(F)F)c2)n1` [Compound 12d, 1-(4-(3-Fluoro-5-(trifluoromethyl)benzyl)pyrimidin-2-yl)-N-(2-hydroxyethyl)indoline-4-carboxamide] was tested, and the Emax (human GPR52 [1]; [3]) was 138 ± 8%.

For `Cc1c(Cc2cc(F)cc(C(F)(F)F)c2)cnnc1N1CCc2c(C(=O)NCCO)cccc21` [Compound 12e, 1-(5-(3-Fluoro-5-(trifluoromethyl)benzyl)-4-methylpyridazin-3-yl)-N-(2-hydroxyethyl)indoline-4-carboxamide], the “decreased EC50 (loss of potency) on adding a 2-substituent to compound 12b” value (human GPR52 [1]) was over 4 fold and the Emax (human GPR52 [1]; HEK293) was 119 ± 6%.

`O=C(NCCO)c1cccc2c1CCN2c1nncc(Cc2cc(F)cc(C(F)(F)F)c2)c1Cl` [Compound 12f, 1-(4-Chloro-5-(3-fluoro-5-(trifluoromethyl)benzyl)pyridazin-3-yl)-N-(2-hydroxyethyl)indoline-4-carboxamide] was tested, and the Emax (human GPR52 [1]; HEK293) was 97 ± 7% and the “decreased EC50 (loss of potency) on adding a 2-substituent to compound 12b” value (human GPR52 [1]; cAMP EC50) was over 4 fold.

With `O=C(c1cc(F)cc(C(F)(F)F)c1)c1cc(N2CCc3c(C(=O)NCCO)cccc32)ncn1` [Compound 25b, 1-(6-(3-Fluoro-5-(trifluoromethyl)benzoyl)pyrimidin-4-yl)-N-(2-hydroxyethyl)indoline-4-carboxamide] the Emax (human GPR52 [1]; [3]) was 22 ± 3%.

`O=C(c1cccc(C(F)(F)F)c1)c1cc(N2CCc3c(C(=O)NCCO)cccc32)ncn1` [Compound 25c, N-(2-Hydroxyethyl)-1-(6-(3-(trifluoromethyl)benzoyl)pyrimidin-4-yl)indoline-4-carboxamide] showed an Emax (human GPR52 [1]; [3]) of 22 ± 4%.

Compound `O=C(NCCO)c1cccc2c1CCN2c1nccc(C(O)c2cc(F)cc(C(F)(F)F)c2)n1` (stereo not drawn) [Compound 25d] has an Emax (human GPR52 [1]; [3]) of 130 ± 9%.

`O=C(NCCO)c1cccc2c1CCN2c1cc(C(O)c2cc(F)cc(C(F)(F)F)c2)ncn1` (stereo not drawn) [Compound 25e] showed an Emax (human GPR52 [1]; [3]) of 134 ± 28%.

`O=C(NCCO)c1cccc2c1CCN2c1nccc(C(F)c2cc(F)cc(C(F)(F)F)c2)n1` (stereo not drawn) [Compound 25g, 1-(4-(Fluoro(3-fluoro-5-(trifluoromethyl)phenyl)methyl)pyrimidin-2-yl)-N-(2-hydroxyethyl)indoline-4-carboxamide] showed an Emax (human GPR52 [1]; [3]) of 144 ± 9%.

For `O=C(NCCO)c1cccc2c1CCN2c1cc(C(F)c2cccc(C(F)(F)F)c2)ncn1` (stereo not drawn) [Compound 25i, 1-(6-(Fluoro(3-(trifluoromethyl)phenyl)methyl)pyrimidin-4-yl)-N-(2-hydroxyethyl)indoline-4-carboxamide], the Emax (human GPR52 [1]; [3]) was 83 ± 5%.

Compound `O=C(NCCO)c1cccc2c1CCN2c1cc(Nc2cccc(C(F)(F)F)c2)ncn1` [Compound 25j] has an Emax (human GPR52 [1]; [3]) of 81 ± 2%.

`O=C(NCCO)c1cccc2c1CCN2c1cc(Oc2cccc(C(F)(F)F)c2)ncn1` [Compound 25k, N-(2-Hydroxyethyl)-1-(6-(3-(trifluoromethyl)phenoxy)pyrimidin-4-yl)indoline-4-carboxamide] was tested, and the Emax (human GPR52 [1]; [3]) was 99 ± 4%.

For `O=C(NCCO)c1cccc2c1CCN2c1cc(Sc2cccc(C(F)(F)F)c2)ncn1` [Compound 25l], the Emax (human GPR52 [1]; [3]) was 123 ± 6%.

`O=C(c1cccc2c1CCN2c1cc(Cc2cc(F)cc(C(F)(F)F)c2)ncn1)N1CC(O)C1` [Compound 30e, (1-(6-(3-Fluoro-5-(trifluoromethyl)benzyl)pyrimidin-4-yl)indolin-4-yl)(3-hydroxyazetidin-1-yl)methanone] showed an Emax (human GPR52 [1]; [3]) of 111 ± 10%.

For `O=C(c1cccc2c1CCN2c1cc(Cc2cc(F)cc(C(F)(F)F)c2)ncn1)N(CCO)CCO` [Compound 30g, 1-(6-(3-Fluoro-5-(trifluoromethyl)benzyl)pyrimidin-4-yl)-N,N-bis(2-hydroxyethyl)indoline-4-carboxamide], the Emax (human GPR52 [1]; [3]) was 119 ± 15%.

Work on `O=C(N[C@H]1CC[C@H](O)CC1)c1cccc(Nc2cc(Cc3cccc(C(F)(F)F)c3)ccn2)c1` [PW0674, N-((1r,4R)-4-Hydroxycyclohexyl)-3-((4-(3-(trifluoromethyl)benzyl)pyridin-2-yl)amino)benzamide] yielded an Emax (human GPR52 [1]; HEK293) of 131 ± 13%.

In the case of `O=C(NC(CO)CO)c1cccc(Nc2cc(Cc3cccc(C(F)(F)F)c3)ccn2)c1` [PW0676, N-(1,3-Dihydroxypropan-2-yl)-3-((4-(3-(trifluoromethyl)benzyl)pyridin-2-yl)amino)benzamide], the Emax (human GPR52 [1]; HEK293) is reported as 214 ± 19%, the “G Protein Bias Factor” value (GPR52) is reported as 66.3 and the “β-Arrestin Bias Factor” value (GPR52) is reported as 0.015. It also gave an Emax (human GPR52 [2]) of 125 ± 12%.

For `O=C(NCC(O)CO)c1cccc(Nc2cc(Cc3cccc(C(F)(F)F)c3)ccn2)c1` (stereo not drawn) [PW0677, N-(2,3-Dihydroxypropyl)-3-((4-(3-(trifluoromethyl)benzyl)pyridin-2-yl)amino)benzamide], the Emax (human GPR52 [1]; HEK293) was 268 ± 12%, the “G Protein Bias Factor” value (GPR52) was 63.2 and the “β-Arrestin Bias Factor” value (GPR52) was 0.016. For the same compound, the Emax (human GPR52 [2]) was 127 ± 7%.

Work on `O=C(c1cccc(Nc2cc(Cc3cccc(C(F)(F)F)c3)ccn2)c1)N1CCOCC1` [PW0823] yielded an Emax (human GPR52 [1]; HEK293) of 93 ± 7%.

For `O=C(NCC(F)F)c1cccc(Nc2cc(Cc3cccc(C(F)(F)F)c3)ccn2)c1` [PW0824], the Emax (human GPR52 [1]; HEK293) was 152 ± 7%.

With `COCCNC(=O)c1cccc(Nc2cc(Cc3cccc(C(F)(F)F)c3)ccn2)c1` [PW0825, N-(2-Methoxyethyl)-3-((4-(3-(trifluoromethyl)benzyl)pyridin-2-yl)amino)benzamide] the Emax (human GPR52 [1]; HEK293) was 131 ± 15%.

Compound `O=C(NCCCCO)c1cccc(Nc2cc(Cc3cccc(C(F)(F)F)c3)ccn2)c1` [PW0832, N-(4-Hydroxybutyl)-3-((4-(3-(trifluoromethyl)benzyl)pyridin-2-yl)amino)benzamide] has an Emax (human GPR52 [1]; HEK293) of 129 ± 8%.

`Cc1c(Nc2cc(Cc3ccc(Cl)cc3F)ccn2)cccc1C(=O)NCCO` [PW0868, 3-((4-(4-Chloro-2-fluorobenzyl)pyridin-2-yl)amino)-N-(2-hydroxyethyl)-2-methylbenzamide] showed an Emax (human GPR52 [1]; HEK293) of 131 ± 8%.
